In general, IC50 refers to the concentration that gives 50% inhibition.

For this assay, the system named is NCI-H295R. The experiment in a line: IC50 (antiproliferative, ATP content). The conditions noted are these: 48 h. The method, boiled down:
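Adrenocortical carcinoma cells in 1536-well plates (1500 per well, serum-free DMEM plus ITS, overnight culture) were exposed for 48 h at 37 °C, 5% CO2 to pin-transferred compounds at 8 final concentrations ranging 0.6 nM to 46 µM. ATP content was then read as CellTiter-Glo luminescence and normalised to vehicle and positive-control wells. The IC50 came from logistic curve fits, and any compound lacking a concentration response was recorded as above the top dose.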
In turn, `CCN(Cc1ccncc1)C(=O)C(CO)c1ccccc1` (stereo not drawn) showed an IC50 above 46 µM.

`CN/C(=C\[N+](=O)[O-])NCCSCc1ccc(CN(C)C)o1` yielded an IC50 above 46 µM.

For the compound `CC[n+]1c(-c2ccccc2)c2cc(N)ccc2c2ccc(N)cc21.[Br-]`, the IC50 is above 46 µM.

Turning to `CO/N=C(\C(=O)N[C@@H]1C(=O)N2C(C(=O)[O-])=C(C[n+]3cccc4c3CCC4)CS[C@H]12)c1csc(N)n1.O=S(=O)(O)O`, the IC50 was above 46 µM.

Turning to `O=C1N([C@@H](CC8=CC=CC=C8)C(N3CCC[C@@]23[H])=O)[C@@]2(O)O[C@]([C@H](C)C)1N[C@]([C@@H]6C[C@]([C@]7([H])N(C)C6)([H])C5=C4C(C7)=CNC4=CC=C5)=O`, the IC50 was above 46 µM.

In turn, `N[C@@H](Cc1ccc(O)c(O)c1)C(=O)O` had an IC50 above 46 µM.

The compound `C[C@H](O)[C@H](O)[C@H]1CNc2[nH]c(N)nc(=O)c2N1.Cl.Cl` yielded an IC50 above 46 µM.

`CCC1(c2ccccc2)C(=O)NC(=O)N(C(=O)c2ccccc2)C1=O` (stereo not drawn) returned an IC50 above 46 µM.

In turn, `c1ccc2c(c1)Sc1ccccc1N2CCN1CCCC1` came in with an IC50 above 46 µM.

In the case of `O=C1Cc2cc(CCN3CCN(c4nsc5ccccc45)CC3)c(Cl)cc2N1`, the IC50 was above 46 µM.

Regarding `O=C(O)c1ccccc1Nc1cccc(C(F)(F)F)c1`, the IC50 was above 46 µM.

Compound `CN(C)CC/C=C1\c2ccccc2COc2ccccc21.Cl` came in with an IC50 above 46 µM.

Consider `C[C@H]1CCC[C@H](O)CCCCCc2cc(O)cc(O)c2C(=O)O1`, for which the IC50 was above 46 µM.

Turning to `CN(C(=O)CN(CCO)CC(=O)N(C)C(C)(C)Cc1ccccc1)C(C)(C)Cc1ccccc1`, the IC50 was above 46 µM.

Turning to `OCC(O)CO`, the IC50 is above 46 µM.

`CCN(CC)CCOC(=O)C(O)(c1ccccc1)c1ccccc1` had an IC50 above 46 µM.

`CN(C)CCOC(=O)COc1ccc(Cl)cc1.Cl` yielded an IC50 above 46 µM.

As for `[O-]S(=O)(=O)OC.C[N+]1(C)CC\C(CC1)=C(\c2ccccc2)c3ccccc3`, the IC50 is above 46 µM.

In turn, `CN1[C@@H]2CC[C@H]1C[C@@H](OC(c1ccccc1)c1ccccc1)C2` came in with an IC50 above 46 µM.

`NCC(CC(=O)O)c1ccc(Cl)cc1` (stereo not drawn) had an IC50 above 46 µM.

`CN1CCN(C2=Nc3cc(F)ccc3Cc3ccccc32)CC1` registered an IC50 above 46 µM.

`O=C(O)CCCc1ccc(N(CCCl)CCCl)cc1` returned an IC50 above 46 µM.

Consider `CO[C@H]1C[C@@H]2CC[C@@H](C)[C@@](O)(O2)C(=O)C(=O)N2CCCC[C@H]2C(=O)O[C@H]([C@H](C)C[C@@H]2CC[C@@H](OC(=O)C(C)(CO)CO)[C@H](OC)C2)CC(=O)[C@H](C)/C=C(\C)[C@@H](O)[C@@H](OC)C(=O)[C@H](C)C[C@H](C)/C=C/C=C/C=C/1C`, for which the IC50 was above 46 µM.

`CN1C(=O)OC(C)(C)C1=O` yielded an IC50 above 46 µM.

In turn, `C=C1CC[C@@H]2[C@](C)(CO)[C@H](O)CC[C@@]2(C)[C@@H]1C/C=C1/C(=O)OC[C@H]1O` came in with an IC50 above 46 µM.

The compound `O=C(O)c1ccc(S(=O)(=O)N(Cl)Cl)cc1` showed an IC50 above 46 µM.

Compound `COc1ccc(Cc2nccc3cc(OC)c(OC)cc23)cc1OC.Cl` returned an IC50 above 46 µM.

The compound `CCCCC(C)(O)C/C=C/[C@H]1[C@H](O)CC(=O)[C@@H]1CCCCCCC(=O)OC` (stereo partly drawn) returned an IC50 above 46 µM.

As for `CCCCCCCCCCCC(=O)OC[C@@H](O)[C@H]1OC[C@H](O)[C@H]1O`, the IC50 is above 46 µM.

With `NC[C@H]1O[C@H](O[C@H]2[C@H](O)[C@@H](O[C@H]3O[C@H](CO)[C@@H](O)[C@H](N)[C@H]3O)[C@H](N)C[C@@H]2N)[C@H](N)C[C@@H]1O`, the IC50 is above 46 µM.

Compound `CN1[C@@H]2CC[C@H]1C[C@@H](OC(=O)C(CO)c1ccccc1)C2` (stereo partly drawn) had an IC50 above 46 µM.

Turning to `Cc1nc2n(c(=O)c1CCN1CCC(c3noc4cc(F)ccc34)CC1)CCCC2`, the IC50 is above 46 µM.

In turn, `CCCCCCCCCCC(CO)CCCCCCCC` (stereo not drawn) yielded an IC50 above 46 µM.

As for `CNc1c2c(nn1C)CCCC2`, the IC50 is above 46 µM.

Consider `CN1CCN(CCCN2c3ccccc3Sc3ccc(S(=O)(=O)N(C)C)cc32)CC1.CS(=O)(=O)O.CS(=O)(=O)O`, for which the IC50 is above 46 µM.

In the case of `CC(C)CN(C[C@@H](O)[C@H](Cc1ccccc1)NC(=O)O[C@@H]1CCOC1)S(=O)(=O)c1ccc(N)cc1`, the IC50 is above 46 µM.

`CCOC(=O)c1cccc(N)c1.CS(=O)(=O)O` had an IC50 above 46 µM.

Take `CN1[C@@H](CC(=O)c2ccccc2)CCC[C@H]1C[C@H](O)c1ccccc1`: the IC50 was above 46 µM.

Consider `CC(C)COC(=O)OCN1C(=O)CN(CCN2CC(=O)N(COC(=O)OCC(C)C)C(=O)C2)CC1=O`, for which the IC50 was above 46 µM.

Compound `CCN1C(=O)NC(c2ccccc2)C1=O` (stereo not drawn) registered an IC50 above 46 µM.

On to `CC(C)(C)NCC(O)c1cc(Cl)c(N)c(Cl)c1` (stereo not drawn), for which the 50% inhibitory concentration (IC50) is above 46 µM.

As for `CCN(CC)C(=O)N1CCN(C)CC1.O=C(O)CC(O)(CC(=O)O)C(=O)O`, the IC50 was above 46 µM.

Regarding `CCN1CCc2nc(N)oc2CC1.Cl.Cl`, the IC50 was above 46 µM.

`C[C@@](Cc1ccc(O)c(O)c1)(NN)C(=O)O` had an IC50 above 46 µM.

The compound `CC(C(O)c1ccc(O)cc1)N1CCC(Cc2ccccc2)CC1` (stereo not drawn) showed an IC50 above 46 µM.

As for `COC(F)(F)C(Cl)Cl`, the IC50 is above 46 µM.

Consider `O=C(c1ccccc1)c1ccc2n1CCC2C(=O)O` (stereo not drawn), for which the IC50 is above 46 µM.

Compound `Cc1cc(N)c2ccccc2[n+]1CCCCCCCCCC[n+]1c(C)cc(N)c2ccccc21.[Cl-].[Cl-]` came in with an IC50 above 46 µM.

`CS(=O)(=O)O.N=C(N)Nc1ccc(C(=O)Oc2ccc3cc(C(=N)N)ccc3c2)cc1`: the IC50 is above 46 µM.

In turn, `Oc1ccc(Cl)c2c1CCC2` showed an IC50 above 46 µM.

With `Cc1cc(O)cc(C)c1Cl`, the IC50 is above 46 µM.

The compound `COc1ccc2c(c1OC)CN1CCc3cc4c(cc3C1C2)OCO4` (stereo not drawn) registered an IC50 above 46 µM.

As for `CC(C)(C)c1ccc(C(O)CCCN2CCC(C(O)(c3ccccc3)c3ccccc3)CC2)cc1` (stereo not drawn), the IC50 was above 46 µM.

For the compound `O=[C@](COC(C)=O)[C@](CC4)(O)[C@]2(C)[C@]4([H])[C@]1([H])CCC([C@@](C=C3)(C)[C@]([H])1[C@@H](O)C2)=CC3=O`, the IC50 is above 46 µM.

In turn, `CC(C)Cc1ccc(C(C)C(=O)O)cc1` (stereo not drawn) returned an IC50 above 46 µM.

For `CCCC(=O)O[C@]1(C(=O)CO)CC[C@H]2[C@@H]3CCC4=CC(=O)CC[C@]4(C)[C@H]3[C@@H](O)C[C@@]21C`, the IC50 was above 46 µM.

`Cc1cccc(C)c1NC(=O)CN1CCN(CCCC(c2ccc(F)cc2)c2ccc(F)cc2)CC1`: the IC50 is above 46 µM.

`NCCNCCNCCNCCN` registered an IC50 above 46 µM.

Take `CCN(CC)CCSC(=O)C(c1ccccc1)c1ccccc1`: the IC50 was above 46 µM.

As for `O=C2N1[C@]([C@@]([H])2NC(C(CC)OC3=CC=CC=C3)=O)([H])SC(C)(C)[C@@H]1[C@@](O)=O` (stereo partly drawn), the IC50 was above 46 µM.

In turn, `CNC(=C[N+](=O)[O-])NCCSCc1csc(CN(C)C)n1` showed an IC50 above 46 µM.

For the compound `CCn1cc(C(=O)O)c(=O)c2cc(F)c(N3CCNCC3)nc21`, the IC50 is above 46 µM.

In turn, `CC(C)OC(=O)C(C)(C)Oc1ccc(C(=O)c2ccc(Cl)cc2)cc1` came in with an IC50 above 46 µM.

The values are drawn from the supplement of paper PMC3493320.
